Measured values as given in US12391674B2, “Heterocyclic compounds for the treatment of epilepsy” (OTSUKA PHARMACEUTICAL CO., LTD., priority 2018, dated 2025).

Tests used:
DBA/2 mice = test: Audiogenic seizure model; assay type: in vivo; details: Mus musculus, DBA/2 mice, oral, auditory stimulation 1 hour after administration, read-out: Seizure suppression
How it was run: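 Male and female DBA/2 mice (3 weeks old, 8/group) dosed orally at 30 mg/kg in 5% gum arabic; 1 h later exposed to 12.6 kHz, 100-110 dB tone for 1 min or until tonic seizure. Maximum seizure score (0–4) recorded; suppression rate graded A (≥90%), B (70–<90%), C (50–<70%).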

ICR mice = test: Rotarod test (motor coordination); assay type: in vivo, mouse; details: oral, rotarod 1 hour after administration
Method: This test is performed to evaluate the effect of the compound on the motor coordination. In this test example, the example compounds shown in Table 4 below were used as test compounds. Male ICR mice (Japan SLC, Inc., 5-6 weeks, 8 per group) were trained to remain on a fixed speed (15 rpm) rotating rod of rotarod apparatus (Muromachi Kikai Co., Ltd.) for 2 minutes. […] After 1 hour of oral administration, the mice were again placed on the rod accelerated from 4 rpm to 40 rpm over 5 minutes and the latency to fall off the rod was recorded for 200 seconds. The falling latency of the compound administration group was calculated as a relative value relative to the average value of the falling latency in the solvent administration group. Here, a coordination disorder of 25% or less was expressed as “A”, and a coordination disorder of more than 25% and 50% or less was expressed as “B”.

| Compound | inhibition in vivo at 5 mg/kg (DBA/2 mice) [%] | Motor dysfunction (ICR mice; dose 5 mg/kg) | other results |
| --- | --- | --- | --- |
| O=c1ccc(-c2cnc(Oc3cc(F)cc(F)c3)nc2)n[nH]1 [Example 102] |  |  | inhibition in vivo at 10 mg/kg (DBA/2 mice; dose 10 mg/kg): > 90%; Motor dysfunction (ICR mice; dose 10 mg/kg): A (a coordination disorder of 25% or less) |
| Nc1ccc(-c2cnc(Oc3ccccc3)nc2)c(N)n1 [Example 66] |  |  | inhibition in vivo at 30 mg/kg (DBA/2 mice): > 90%; Motor dysfunction (ICR mice; dose 30 mg/kg): A (a coordination disorder of 25% or less) |
| O=C1Cc2nc(-c3cnc(Oc4ccccc4)nc3)ccc2N1 [Example 172, 5-(2-Phenoxypyrimidin-5-Yl)-1H-Pyrrolo[3,2-b]Pyridin-2 (3H)-One] | > 90 | A (a coordination disorder of 25% or less) |  |
| O=C1CCN(c2ccc(Oc3ccccc3)cc2)C(=O)N1 [Example 303] |  |  | inhibition in vivo at 30 mg/kg (DBA/2 mice): > 90%; Motor dysfunction (ICR mice; dose 30 mg/kg): A (a coordination disorder of 25% or less) |
| c1ccc(Oc2ncc(-c3ccc4nccn4n3)cn2)cc1 [Example 123, 6-(2-Phenoxypyrimidin-5-Yl) Imidazo[1,2-b]Pyridazine] | > 90 | A (a coordination disorder of 25% or less) |  |
| c1ccc(Oc2ncc(-c3ccc4[nH]cnc4c3)cn2)cc1 [Example 258] | > 90 | A (a coordination disorder of 25% or less) |  |
| NC(=O)c1ccc(-c2cnc(Oc3ccccc3)nc2)cc1 [Example 243] | > 90 | A (a coordination disorder of 25% or less) |  |
| FC(F)(F)c1cn2ccc(-c3cnc(Oc4ccccc4)nc3)cc2n1 [Example 216] | > 90 | A (a coordination disorder of 25% or less) |  |
| O=c1ccc(-c2cnc(Oc3ccccc3F)nc2)n[nH]1 [Example 95] |  |  | inhibition in vivo at 3 mg/kg (DBA/2 mice): > 90%; Motor dysfunction (ICR mice; dose 10 mg/kg): A (a coordination disorder of 25% or less) |
| O=C1COCCN1c1cnc(Oc2ccccc2)nc1 [Example 229, 4-(2-Phenoxypyrimidin-5-Yl) Morpholin-3-One] |  |  | inhibition in vivo at 30 mg/kg (DBA/2 mice): > 90%; Motor dysfunction (ICR mice; dose 30 mg/kg): A (a coordination disorder of 25% or less) |
| c1ccc(Oc2ncc(-c3ccc4nccn4c3)cn2)cc1 [Example 119, 6-(2-Phenoxypyrimidin-5-Yl) Imidazo[1,2-a]Pyridine] | > 90 | A (a coordination disorder of 25% or less) |  |
| COc1cccc(Oc2ncc(-c3ccc4nccn4c3)cn2)c1 [Example 162] | > 90 | A (a coordination disorder of 25% or less) |  |
| O=C1CCN(c2ccc(Oc3ccccc3)c(F)c2)C(=O)N1 [Example 329] |  |  | inhibition in vivo at 30 mg/kg (DBA/2 mice): 70 to 90%; Motor dysfunction (ICR mice; dose 30 mg/kg): A (a coordination disorder of 25% or less) |
| O=C1CCN(c2ccc(Oc3ccccn3)cc2)C(=O)N1 [Example 316] |  |  | inhibition in vivo at 30 mg/kg (DBA/2 mice): > 90%; Motor dysfunction (ICR mice; dose 30 mg/kg): A (a coordination disorder of 25% or less) |
| c1ccc(Oc2ncc(-c3ccc4nncn4c3)cn2)cc1 [Example 129] | > 90 | A (a coordination disorder of 25% or less) |  |
| Nc1ccc(-c2cnc(Oc3ccccc3F)nc2)nn1 [Example 26] | > 90 | A (a coordination disorder of 25% or less) |  |
| c1ccc(Oc2ncc(-c3ccc4cncn4c3)cn2)cc1 [Example 155] | > 90 | A (a coordination disorder of 25% or less) |  |
| N#Cc1ccc(-c2cnc(Oc3ccccc3)nc2)cn1 [Example 297] |  |  | inhibition in vivo at 1 mg/kg (DBA/2 mice; dose 1 mg/kg): > 90%; Motor dysfunction (ICR mice; dose 1 mg/kg): A (a coordination disorder of 25% or less) |
| O=c1[nH]nccc1-c1cnc(Oc2ccccc2)nc1 [Example 114, 4-(2-Phenoxypyrimidin-5-Yl)Pyridazin-3 (2H)-One] | > 90 | A (a coordination disorder of 25% or less) |  |
| Nc1ccc(-c2cnc(Oc3cccc(OC(F)(F)F)c3)nc2)nn1 [Example 42] | > 90 | A (a coordination disorder of 25% or less) |  |
| c1ccc(Oc2ncc(-c3ccn4cncc4c3)cn2)cc1 [Example 283] | > 90 | A (a coordination disorder of 25% or less) |  |
| O=c1[nH]cccc1-c1cnc(Oc2ccccc2)nc1 [Example 107] |  |  | inhibition in vivo at 30 mg/kg (DBA/2 mice): > 90%; Motor dysfunction (ICR mice; dose 30 mg/kg): A (a coordination disorder of 25% or less) |
| Nc1ccc(-c2cnc(Oc3cccc(C(F)(F)F)c3)nc2)nn1 [Example 40] |  |  | inhibition in vivo at 3 mg/kg (DBA/2 mice): > 90%; Motor dysfunction (ICR mice; dose 3 mg/kg): A (a coordination disorder of 25% or less) |
